This assay deals with T1, human GLP-1R receptor (Homo sapiens, UniProt P43220).
T1 construct: expressed in transfected cells
Description: GLP-1R low expression cell assay (cAMP TR-FRET, CHO-K1_hGLP-1Rlow_clone10 cells). The class given is cell-based. The conditions noted are these: for EC50: cAMP TR-FRET, 30 min at 25° C.; for Emax: maximum activation relative to control GLP-1 peptide agonist. In short, it runs like this:
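CHO-K1 cells stably expressing low surface human GLP-1R (clone10), 1,000 cells/well, exposed to 10-point 3-fold compound dilutions for 30 min at 25 °C. cAMP measured by TR-FRET (Eu-cAMP tracer/ULight-anti-cAMP, 15 min). EC50 from Hill fit of duplicate percent activation relative to a parallel GLP-1 control agonist.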
On the technique in general: Time-resolved FRET reads energy transfer from a long-lived donor to a nearby acceptor.

T1 sequence (P43220 24-463): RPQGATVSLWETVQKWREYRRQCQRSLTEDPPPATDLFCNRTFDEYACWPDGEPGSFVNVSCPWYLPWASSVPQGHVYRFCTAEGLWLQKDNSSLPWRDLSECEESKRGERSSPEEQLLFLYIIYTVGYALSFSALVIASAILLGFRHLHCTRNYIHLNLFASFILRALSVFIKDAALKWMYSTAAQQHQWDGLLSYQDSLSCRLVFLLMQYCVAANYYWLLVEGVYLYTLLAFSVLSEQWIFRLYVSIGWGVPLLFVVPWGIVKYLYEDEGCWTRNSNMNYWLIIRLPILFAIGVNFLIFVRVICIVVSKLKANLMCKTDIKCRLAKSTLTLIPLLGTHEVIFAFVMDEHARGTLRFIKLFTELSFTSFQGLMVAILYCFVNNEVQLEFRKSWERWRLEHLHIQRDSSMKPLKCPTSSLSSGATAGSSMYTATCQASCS

By EC50 is commonly meant the concentration that produces a half-maximal response. A low value points to a more potent agent. Broadly, the Emax is the maximal effect, on the per cent scale that the assay sets. In turn, `Cn1c(CN2CCC(c3cccc(OCc4ccc(Cl)cc4F)n3)CC2)nc2c(OC3CC3)cc(C(=O)O)cc21` [Compound 215, 2-((4-(6-((4-Chloro-2-fluorobenzyl)oxy)pyridin-2-yl)piperidin-1-yl)methyl)-4-cyclopropoxy-1-methyl-1H-benzo[d]imidazole-6-carboxylic acid] came in with an EC50 of less than 0.01 µM and an Emax of more than 85%.

Consider `Cn1c(CN2CCC(n3ccc(OCc4ccc(Cl)cc4F)n3)CC2)nc2c(OC(F)F)cc(C(=O)O)cc21` [Compound 217, 2-((4-(3-((4-Chloro-2-fluorobenzyl)oxy)-1H-pyrazol-1-yl)piperidin-1-yl)methyl)-4-(difluoromethoxy)-1-methyl-1H-benzo[d]imidazole-6-carboxylic acid], for which the EC50 is more than 1 µM and the Emax was more than 85%.

On to `Cn1c(CN2CCC(c3cccc(OCc4ccc(Cl)cc4F)n3)CC2)nc2c(Cl)cc(C(=O)O)cc21` [Compound 218, 4-chloro-2-((4-(6-((4-chloro-2-fluorobenzyl)oxy)pyridin-2-yl)piperidin-1-yl)methyl)-1-methyl-1H-benzo[d]imidazole-6-carboxylic acid], for which the EC50 was in the range of 0.01 to 0.1 µM and the Emax was more than 85%.

`Cn1c(CN2CCC(c3cccc(CCc4ccc(Cl)cc4)n3)CC2)nc2c(OC(F)F)cc(C(=O)O)cc21` [Compound 219, 2-((4-(6-(4-chlorophenethyl)pyridin-2-yl)piperidin-1-yl)methyl)-4-(difluoromethoxy)-1-methyl-1H-benzo[d]imidazole-6-carboxylic acid] showed an EC50 of more than 1 µM and an Emax of 25 to 50%.

In turn, `Cn1c(CN2CCC(c3cccc(OCc4ccc(Cl)cc4F)n3)CC2)nc2c(OC(F)F)c(C(=O)O)ccc21` [Compound 220, 2-((4-(6-((4-Chloro-2-fluorobenzyl)oxy)pyridin-2-yl)piperidin-1-yl)methyl)-4-(difluoromethoxy)-1-methyl-1H-benzo[d]imidazole-5-carboxylic acid] displayed an EC50 of more than 1 µM and an Emax of more than 85%.

`Cn1c(CN2CCC(c3cccc(OCc4ccc(OC(F)F)cc4F)n3)CC2)nc2c(OC(F)F)cc(C(=O)O)cc21` [Compound 221, 4-(Difluoromethoxy)-2-((4-(6-((4-(difluoromethoxy)-2-fluorobenzyl)oxy)pyridin-2-yl)piperidin-1-yl)methyl)-1-methyl-1H-benzo[d]imidazole-6-carboxylic acid] showed an EC50 of 0.01 to 0.1 µM and an Emax of more than 85%.

For `Cn1c(CN2CCC(c3cccc(OCc4ccc(OC(F)(F)F)cc4F)n3)CC2)nc2c(OC(F)F)cc(C(=O)O)cc21` [Compound 222], the EC50 fell in the range of 0.1 to 1 µM and the Emax was more than 85%.

As for `Cn1c(CN2CCC(c3cccc(OCc4ccc(C(F)(F)F)cc4F)n3)CC2)nc2c(OC(F)F)cc(C(=O)O)cc21` [Compound 223], the EC50 lay within 0.01 to 0.1 µM and the Emax is more than 85%.

`Cn1c(CN2CCC(c3cccc(OCc4ccc(Cl)cc4F)n3)CC2)nc2c(OCC(F)(F)F)cc(C(=O)O)cc21` [Compound 224, 2-((4-(6-((4-Chloro-2-fluorobenzyl)oxy)pyridin-2-yl)piperidin-1-yl)methyl)-1-methyl-4-(2,2,2-trifluoroethoxy)-1H-benzo[d]imidazole-6-carboxylic acid] displayed an EC50 of 0.01 to 0.1 µM and an Emax of more than 85%.

In turn, `COCC(F)(F)Oc1cc(C(=O)O)cc2c1nc(CN1CCC(c3cccc(OCc4ccc(Cl)cc4F)n3)CC1)n2C` [Compound 227, 2-((4-(6-((4-Chloro-2-fluorobenzyl)oxy)pyridin-2-yl)piperidin-1-yl)methyl)-4-(1,1-difluoro-2-methoxyethoxy)-1-methyl-1H-benzo[d]imidazole-6-carboxylic acid] returned an EC50 of less than 0.01 µM and an Emax of more than 85%.

Compound `COc1ccc(COc2cccc(C3CCN(Cc4nc5c(OC(F)F)cc(C(=O)O)cc5n4C)CC3)n2)c(F)c1` [Compound 228, 4-(Difluoromethoxy)-2-((4-(6-((2-fluoro-4-methoxybenzyl)oxy)pyridin-2-yl)piperidin-1-yl)methyl)-1-methyl-1H-benzo[d]imidazole-6-carboxylic acid] had an EC50 of 0.01 to 0.1 µM and an Emax of more than 85%.

Regarding `Cn1c(CN2CCC(c3cccc(OCc4ccc(C(F)(F)F)cn4)n3)CC2)nc2c(OC(F)F)cc(C(=O)O)cc21` [Compound 229, 4-(Difluoromethoxy)-1-methyl-2-((4-(6-((5-(trifluoromethyl)pyridin-2-yl)methoxy)pyridin-2-yl)piperidin-1-yl)methyl)-1H-benzo[d]imidazole-6-carboxylic acid], the EC50 lay within 0.1 to 1 µM and the Emax was more than 85%.

Turning to `COc1ccc(C2CCN(Cc3nc4c(OC(F)F)cc(C(=O)O)cc4n3C)CC2)cc1OCc1ccc(Cl)cc1F` [Compound 230, 2-((4-(3-((4-Chloro-2-fluorobenzyl)oxy)-4-methoxyphenyl)piperidin-1-yl)methyl)-4-(difluoromethoxy)-1-methyl-1H-benzo[d]imidazole-6-carboxylic acid], the EC50 is more than 1 µM and the Emax was less than 25%.

`COc1cc(F)ccc1COc1cccc(C2CCN(Cc3nc4c(OC(F)F)cc(C(=O)O)cc4n3C)CC2)n1` [Compound 231, 4-(Difluoromethoxy)-2-((4-(6-((4-fluoro-2-methoxybenzyl)oxy)pyridin-2-yl)piperidin-1-yl)methyl)-1-methyl-1H-benzo[d]imidazole-6-carboxylic acid] gave an EC50 of 0.01 to 0.1 µM and an Emax of more than 85%.

Compound `Cn1c(CN2CCC(c3cccc(OCc4ccc(Cl)cc4F)n3)CC2)nc2c(OC(F)F)cc(-c3nnc(C(F)(F)F)[nH]3)cc21` [Compound 232, 2-((4-(6-((4-Chloro-2-fluorobenzyl)oxy)pyridin-2-yl)piperidin-1-yl)methyl)-4-(difluoromethoxy)-1-methyl-6-(5-(trifluoromethyl)-4H-1,2,4-triazol-3-yl)-1H-benzo[d]imidazole] returned an EC50 of more than 1 µM and an Emax of 25 to 50%.

Compound `Cn1c(CN2CCC(c3cccc(OCc4ccc(Cl)cc4F)n3)CC2)nc2c(OC(F)F)cc(-c3n[nH]c(=O)o3)cc21` [Compound 234, 5-(2-((4-(6-((4-Chloro-2-fluorobenzyl)oxy)pyridin-2-yl)piperidin-1-yl)methyl)-4-(difluoromethoxy)-1-methyl-1H-benzo[d]imidazol-6-yl)-1,3,4-oxadiazol-2 (3H)-one] gave an EC50 of more than 1 µM and an Emax of less than 25%.

Regarding `Cn1c(CN2CCC(c3cccc(OCc4ccc(Cl)cc4F)n3)CC2)nc2c(OC(F)(F)CF)cc(C(=O)O)cc21` [Compound 235, 2-((4-(6-((4-Chloro-2-fluorobenzyl)oxy)pyridin-2-yl)piperidin-1-yl)methyl)-1-methyl-4-(1,1,2-trifluoroethoxy)-1H-benzo[d]imidazole-6-carboxylic acid], the EC50 lay within 0.01 to 0.1 µM and the Emax was more than 85%.

On to `Cn1c(CN2CCC(c3cccc(OCc4ccc(Cl)cc4F)n3)CC2)nc2c(OC(F)F)cc(-c3noc(=O)[nH]3)cc21` [Compound 236, 3-(2-((4-(6-((4-Chloro-2-fluorobenzyl)oxy)pyridin-2-yl)piperidin-1-yl)methyl)-4-(difluoromethoxy)-1-methyl-1H-benzo[d]imidazol-6-yl)-1,2,4-oxadiazol-5 (4H)-one], for which the EC50 is 0.1 to 1 µM and the Emax is 50 to 85%.

The values above are taken from US20240368120A1 (Terns Pharmaceuticals, Inc., priority 2023, published 2024).
